The values below come from patent US5726195A, “Aminoacyl adenylate mimics as novel antimicrobial and antiparasitic agents” (Cubist Pharmaceuticals, Inc., priority 1996, dated 1998).

Assay [1] deals with E. Coli. IleRS (isoleucyl-tRNA synthetase) (Escherichia coli, UniProt P00956). The experiment in a line: Inhibition of isoleucyl-tRNA synthetase (aminoacylation of tRNA with [3H]isoleucine). The class given is biochemical. As to conditions: read-out: IC50 E.Coli. IleRS; E. coli enzyme; irreversible inhibitors: values are 50% of the active enzyme concentration. In a few lines: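 Enzyme (0.08-2.0 nM, preferably 0.4 nM) preincubated 20 min at 25° C. with compound, then reacted at 25° C. with 4 mM ATP, 5-20 μM [3H]isoleucine, 90 μM crude or 2 μM specific tRNA in HEPES pH 7.5. TCA-precipitable radioactivity counted; IC50 relative to uninhibited activity.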
E. Coli. IleRS (isoleucyl-tRNA synthetase), sequence (P00956 whole entry): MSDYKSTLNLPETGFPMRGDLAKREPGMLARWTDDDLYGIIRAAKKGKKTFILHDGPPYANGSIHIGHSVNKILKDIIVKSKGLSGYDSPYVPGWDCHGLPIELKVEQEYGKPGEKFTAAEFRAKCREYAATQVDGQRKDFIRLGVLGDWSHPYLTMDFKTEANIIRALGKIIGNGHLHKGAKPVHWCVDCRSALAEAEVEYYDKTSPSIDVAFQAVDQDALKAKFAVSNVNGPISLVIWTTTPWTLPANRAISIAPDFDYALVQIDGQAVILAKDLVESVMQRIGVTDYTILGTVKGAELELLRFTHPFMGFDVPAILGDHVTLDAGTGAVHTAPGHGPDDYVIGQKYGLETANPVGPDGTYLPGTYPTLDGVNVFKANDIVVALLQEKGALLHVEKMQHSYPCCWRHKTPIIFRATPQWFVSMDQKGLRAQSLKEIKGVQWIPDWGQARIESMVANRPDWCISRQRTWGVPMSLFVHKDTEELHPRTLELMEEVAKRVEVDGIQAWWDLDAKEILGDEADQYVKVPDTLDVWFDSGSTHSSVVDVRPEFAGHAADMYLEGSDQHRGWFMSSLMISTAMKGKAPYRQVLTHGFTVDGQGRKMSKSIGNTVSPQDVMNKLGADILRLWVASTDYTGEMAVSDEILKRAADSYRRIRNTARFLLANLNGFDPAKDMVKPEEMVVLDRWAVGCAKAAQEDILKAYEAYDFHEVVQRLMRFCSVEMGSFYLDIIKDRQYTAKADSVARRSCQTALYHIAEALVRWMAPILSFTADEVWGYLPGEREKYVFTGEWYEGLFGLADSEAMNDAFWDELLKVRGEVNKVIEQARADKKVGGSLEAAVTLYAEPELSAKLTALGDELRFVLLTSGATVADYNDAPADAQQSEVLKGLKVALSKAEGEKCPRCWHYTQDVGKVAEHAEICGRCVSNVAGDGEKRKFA

The test system of another assay is B. subtilis ATCC 6633. The experiment in a line: Whole cell antimicrobial screen, MIC. As to conditions: Bacillus subtilis, ATCC6633. The class given is cell-based. The essentials:
(§1)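 MIC = lowest compound concentration inhibiting growth, judged from optical density after overnight incubation at 30° C.-37° C. Inoculum was 5×10^4 cells per well in media such as Mueller-Hinton Broth, with twofold dilutions spanning 0.1 μg/mL-500 μg/mL.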

The next assay relates to C. albicans ATCC 10231. The experiment in a line: Whole cell antimicrobial screen, MIC. Type of assay: cell-based. To be noted: Candida albicans, ATCC10231. The essentials: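 Broth microdilution following NCCLS: two-fold dilutions (final 0.1–500 μg/mL, ≤1% DMSO) with 5×10^4 cells in 100 μL of appropriate medium, e.g. Mueller-Hinton broth. After overnight incubation at 30–37 °C, growth was read by optical density, and MIC is the lowest concentration inhibiting growth.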

Another assay concerns E. faecalis ATCC 33011. Nature of the assay: Whole cell antimicrobial screen, MIC. The class given is cell-based. To be noted: Enterococcus faecalis, ATCC33011. The essentials: as §1
The test system of another assay is E. faecium ATCC 6569. The experiment in a line: Whole cell antimicrobial screen, MIC. The class given is cell-based. To be noted: Enterococcus faecium, ATCC6569. In a few lines: as §1
The subject of another assay is H. influenza ATCC 49247. The experiment in a line: Whole cell antimicrobial screen, MIC. The class given is cell-based. In a few lines: as §1
For a further assay, the system named is K. pneumonia ATCC 4352. The experiment in a line: Whole cell antimicrobial screen, MIC. Type of assay: cell-based. As to conditions: Klebsiella pneumoniae, ATCC4352. In a few lines:
as §1

For assay [2], the system named is M. catarrhalis ATCC 25240. The experiment in a line: Whole cell antimicrobial screen, MIC. Type of assay: cell-based. To be noted: Moraxella catarrhalis, ATCC25240. In a few lines:
as §1

The next assay has as its system S. aureus ATCC 14154. The experiment in a line: Whole cell antimicrobial screen, MIC. Type of assay: cell-based. To be noted: Staphylococcus aureus, ATCC14154. The essentials:
as §1

Another assay concerns S. aureus ATCC 6538P. Nature of the assay: Whole cell antimicrobial screen, MIC. The class given is cell-based. To be noted: Staphylococcus aureus, ATCC6538P. In a few lines:
as §1

For assay [3], the system named is S. epidermidis ATCC 33501. Nature of the assay: Whole cell antimicrobial screen, MIC. The class given is cell-based. To be noted: Staphylococcus epidermidis, ATCC33501. In a few lines: as §1
The next assay relates to S. pneumonia ATCC 49619. Nature of the assay: Whole cell antimicrobial screen, MIC. Type of assay: cell-based. The essentials: as §1
The subject of a further assay is S. pyogenes ATCC 8668. Nature of the assay: Whole cell antimicrobial screen, MIC. The class given is cell-based. As to conditions: Streptococcus pyogenes, ATCC8668. The essentials: as §1
Assay [4] concerns S. saprophyticus ATCC 35552. Nature of the assay: Whole cell antimicrobial screen, MIC. To be noted: Staphylococcus saprophyticus, ATCC35552. The class given is cell-based. In a few lines: as §1

Molecules are shown by their SMILES. Converted amounts (≈) assume the structure as drawn.

The term IC50 denotes the concentration that gives 50% inhibition. Consider `CC[C@H](C)[C@H](N)C(=O)NS(=O)(=O)OC[C@H]1O[C@@H](CCn2nnc(-c3ccc(Oc4ccccc4)cc3)n2)[C@H](O)[C@@H]1O` [Compound X, [S-(R*,R*)]-3,6-anhydro-1,2-dideoxy-1-[5-(4-phenoxyphenyl)-2H-tetrazol-2-yl]-D-allo-heptitol 7-(2-amino-3-methyl-1-oxopentyl)sulfamate], for which, in [1], the IC50 was 1.3 nM. The MIC against B. subtilis ATCC 6633 is 10 µg/mL (≈ 16.9 µM); in the assay with C. albicans ATCC 10231, greater than 500 µg/mL; in the assay on E. faecalis ATCC 33011, 300 µg/mL (≈ 508 µM); against E. faecium ATCC 6569 it was 10 µg/mL (≈ 16.9 µM); against H. influenza ATCC 49247 it was 100 µg/mL (≈ 169 µM); against K. pneumonia ATCC 4352, 50 µg/mL (≈ 84.7 µM). In addition, the MIC in assay [2] is 25 µg/mL (≈ 42.3 µM); in the assay with S. aureus ATCC 14154, 25 µg/mL (≈ 42.3 µM); in the assay on S. aureus ATCC 6538P, 10 µg/mL (≈ 16.9 µM); in [3] it was 2 µg/mL (≈ 3.39 µM); against S. pneumonia ATCC 49619, 25 µg/mL (≈ 42.3 µM); in the assay with S. pyogenes ATCC 8668, 0.5 µg/mL (≈ 0.847 µM). Further, in [4], the MIC worked out at 5 µg/mL (≈ 8.47 µM).
